Data as given in ChEMBL document CHEMBL5356975, “Brønsted Acid-Mediated Conversion of Naturally Abundant Lathyrane Diterpenes: Are Rare 10,11-seco-Lathyrane Diterpenes Artifacts?” (J Nat Prod, 2024).
Activity calls are given as the source filed them. The calls are words filed in the database; no cut-off is given here.

Experiments:
BV-2 [1] = experiment: Cytotoxicity against mouse BV-2 cells assessed as reduction in cell viability at 20 uM incubated for 24 hrs by MTT assay; type: toxicity, cell-based; conditions: bv-2, 24 h
BV-2 [2] = experiment: Antineuroinflammatory activity in LPS induced mouse BV-2 cells assessed as inhibition of NO production at 20 uM pretreated for 4 hrs followed by LPS addition and measured after 24 hrs by griess reagent based assay relative to control; type: functional; conditions: time 28 hrs
BV-2 [3] = experiment: Antineuroinflammatory activity in LPS induced mouse BV-2 cells assessed as inhibition of NO production pretreated for 4 hrs followed by LPS addition and measured after 24 hrs by griess reagent based assay; type: functional, cell-based
BV-2 [4] = experiment: Antineuroinflammatory activity in LPS induced mouse BV-2 cells assessed as reduction in iNOS protein expression at 10 uM pretreated for 4 hrs followed by LPS addition and measured after 24 hrs by Western blot analysis; type: functional, cell-based; conditions: time 28.0 hrs
BV-2 [5] = experiment: Antineuroinflammatory activity in LPS induced mouse BV-2 cells assessed as reduction in COX-2 protein expression at 10 uM pretreated for 4 hrs followed by LPS addition and measured after 24 hrs by Western blot analysis; type: functional, cell-based; conditions: time 28.0 hrs

| IC50 (BV-2 [3]) | SMILES | Activity (BV-2 [1]) | also measured |
| --- | --- | --- | --- |
|  | C=C1CC[C@H](C(C)(C)OCC)/C=C/[C@@H](C)C(=O)[C@@]2(O)C[C@H](C)[C@H](O)[C@@H]2[C@H]1O | Non-Toxic |  |
| 18 µM | C=C1[C@@H](O)C[C@H](C(C)(C)OCCCO)/C=C/[C@@H](C)C(=O)[C@@]2(O)C[C@H](C)[C@H](O)[C@@H]2[C@H]1O | Non-Toxic | inhibition at 20 µM (BV-2 [2]): 56% |
| 6.2 µM | C=CC(=O)OC(C)(C)[C@@H]1/C=C/[C@@H](C)C(=O)[C@@]2(O)C[C@H](C)[C@H](O)[C@@H]2[C@@H](O)C(=C)CC1 | Non-Toxic | Activity (BV-2 [4]): Active; inhibition at 20 µM (BV-2 [2]): 73%; Activity (BV-2 [5]): Active |
|  | C=C1CC[C@H](C(C)(C)OC(=O)CC)/C=C/[C@@H](C)C(=O)[C@@]2(O)C[C@H](C)[C@H](O)[C@@H]2[C@H]1O | Non-Toxic |  |
|  | C=C1[C@@H](O)C[C@H](C(C)(C)OC(=O)COCC)/C=C/[C@@H](C)C(=O)[C@@]2(O)C[C@H](C)[C@H](O)[C@@H]2[C@H]1O | Non-Toxic |  |
|  | C=C1[C@@H](O)C[C@H](C(C)(C)OC(=O)CC)/C=C/[C@@H](C)C(=O)[C@@]2(O)C[C@H](C)[C@H](O)[C@@H]2[C@H]1O | Non-Toxic |  |
|  | C=C1CC[C@H](C(C)(C)OC(=O)COCC)/C=C/[C@@H](C)C(=O)[C@@]2(O)C[C@H](C)[C@H](O)[C@@H]2[C@H]1O | Non-Toxic |  |
|  | C=C1[C@@H](O)C[C@H](C(C)(C)OC)/C=C/[C@@H](C)C(=O)[C@@]2(O)C[C@H](C)[C@H](O)[C@@H]2[C@H]1O | Non-Toxic |  |
|  | C=C1[C@@H](O)C[C@H](C(C)(C)OC(C)=O)/C=C/[C@@H](C)C(=O)[C@@]2(O)C[C@H](C)[C@H](O)[C@@H]2[C@H]1O | Non-Toxic |  |
|  | C=C1CC[C@H](C(C)(C)OC(C)=O)/C=C/[C@@H](C)C(=O)[C@@]2(O)C[C@H](C)[C@H](O)[C@@H]2[C@H]1O | Non-Toxic |  |
| 7.7 µM | C=CC(=O)OC(C)(C)[C@@H]1/C=C/[C@@H](C)C(=O)[C@@]2(O)C[C@H](C)[C@H](O)[C@@H]2[C@@H](O)C(=C)[C@@H](O)C1 | Non-Toxic | inhibition at 20 µM (BV-2 [2]): 70% |
| 13 µM | C=C1CC[C@H](C(C)(C)OCCCO)/C=C/[C@@H](C)C(=O)[C@@]2(O)C[C@H](C)[C@H](O)[C@@H]2[C@H]1O | Non-Toxic | inhibition at 20 µM (BV-2 [2]): 63% |
|  | C=C1CC[C@H](C(C)(C)OC)/C=C/[C@@H](C)C(=O)[C@@]2(O)C[C@H](C)[C@H](O)[C@@H]2[C@H]1O | Non-Toxic |  |
|  | C=C1[C@@H](O)C[C@H](C(C)(C)OCC)/C=C/[C@@H](C)C(=O)[C@@]2(O)C[C@H](C)[C@H](O)[C@@H]2[C@H]1O | Non-Toxic |  |

| SMILES | IC50 (BV-2 [3]) | Activity (BV-2 [1]) | also measured |
| --- | --- | --- | --- |
| O=c1c(O)c(-c2ccc(O)c(O)c2)oc2cc(O)cc(O)c12 [QUERCETIN] | 10 µM |  |  |
